Measurements: patent publication US20250066286A1, “COMPOSITIONS OF (Z)-ENDOXIFEN AND METHODS OF ENRICHMENT THEREOF” (Atossa Therapeutics, Inc., priority 2022, published 2025)
Converted amounts (≈) assume the structure as drawn. Like-named read-outs stand apart in the source and are kept apart here.

Assay: Solubility testing of (Z)-endoxifen in single solvents
Type: physicochemical
Conditions: for solubility at 15 min: 25 °C; for solubility at 15 min / solubility: organic solvent or mixture, thermodynamic from solid
Method: To test the solubility of (Z)-endoxifen in varying conditions, 10 mg of (Z)-endoxifen was added to a stoppered tube, and 0.01 ml of the selected solvent was added (1000 mg/ml solution). The tube was shaken vigorously for 1 minute and then incubated at a constant temperature of 25.0° C. for 15 minutes. If the solid was not completed dissolved, the tube was shaken again and placed at the constant temperature of 25.0° C. for another 15 minutes. If the solid was completely dissolved at this step, it was considered to be very soluble in the selected solvent system. If the solid was not dissolved by this step, another 0.09 ml was added (yielding a 100 mg/ml solution) and an attempt to further dissolve the solid was made by the same steps of shaking and incubating twice over as described previously. If the solid was completely dissolved at this step, it was considered freely soluble. If the solid was not dissolved by this step another 0.2 ml was added (yielding a 33.3 mg/ml solution) and an attempt to further dissolve the solid was made by the same steps of shaking and incubating twice over as described previously. If the solid was completely dissolved at this step, it was considered soluble. If the solid was not dissolved by this step another, 0.7 ml was added (yielding a 10 mg/ml solution) and an attempt to further dissolve the solid was made by the same steps of shaking and incubating twice over as described previously. If the solid was completely dissolved at this step, it was considered sparingly soluble. If the solid was not dissolved by this step the sample was considered to be slightly soluble or very slightly soluble and the solution was heated until the boiling point of the solvent system (max 100° C.) under stirring with a rate of 0.5° C. per minute temperature ramp rate to verify the solubility at high temperatures. The hot solution was after cooled to room temperature with a cooling rate of 0.5° C. per minute to verify if the sample had precipitated after up to 18 hours under magnetic stirring. The same procedure was also used for the solvent mixture solubility tests. The concentrations investigated for the solvent mixture stability were 40 mg/ml and 100 mg/ml. Some solutions in the following example were precipitated by cooling of the solution from a temperature between 50-100° C. to between 10-25° C. at a rate ranging from −0.2 to −0.5° C./minute resulting in a precipitate.

With `CC/C(=C(\c1ccc(O)cc1)c1ccc(OCCNC)cc1)c1ccccc1` [(Z)-endoxifen, (Z)-4-(1-(4-(2-(methylamino)ethoxy)phenyl)-2-phenylbut-1-enyl)phenol] the solubility at 15 min (2-propanol, 2-propanol, room temperature, read-out: Solubility) was 10000 µg/mL (≈ 26.8 mM), the solubility at 15 min (2-propanol, solvent 2-propanol, room temperature, read-out: Solubility at RT) was 10000 µg/mL (≈ 26.8 mM) and the solubility (2-propanol, 2-propanol, high temperature, read-out: Solubility) was 20000 to 100000 µg/mL (≈ 53.5 to 268 mM). For the same compound, the solubility at 15 min (4-met-2-pentanone, 4-met-2-pentanone, room temperature, read-out: Solubility) was 10000 µg/mL (≈ 26.8 mM), the solubility (4-met-2-pentanone, 4-met-2-pentanone, high temperature, read-out: Solubility) was 100000 to 200000 µg/mL (≈ 268 to 535 mM) and the solubility at 15 min (DMF, DMF, read-out: Solubility) was 250000 to 500000 µg/mL (≈ 669 to 1340 mM). The solubility at 15 min (THF, THF, read-out: Solubility) was 111000 to 125000 µg/mL (≈ 297 to 335 mM), the solubility at 15 min (acetone, acetone, room temperature, read-out: Solubility) was 10000 µg/mL (≈ 26.8 mM) and the solubility at 15 min (acetone, solvent acetone, room temperature, read-out: Solubility at RT) was 10000 µg/mL (≈ 26.8 mM). For the same compound, the solubility (acetone, acetone, high temperature, read-out: Solubility) was less than 50000 µg/mL, the solubility (acetone, solvent acetone, 100 mg/mL, high temperature, read-out: Solubility HT (100 mg/mL): Sol. HT) was less than 100000 µg/mL and the solubility at 15 min (acetonitrile, acetonitrile, room temperature, read-out: Solubility) was less than 10000 µg/mL. For the same compound, the solubility at 15 min (acetonitrile, solvent acetonitrile, room temperature, read-out: Solubility at RT) was less than 10000 µg/mL, the solubility (acetonitrile, acetonitrile, high temperature, read-out: Solubility) was 20000 to 100000 µg/mL (≈ 53.5 to 268 mM) and the solubility (acetonitrile, solvent acetonitrile, 100 mg/mL, high temperature, read-out: Solubility HT (100 mg/mL): Sol. HT) was less than 100000 µg/mL. For the same compound, the solubility at 15 min (butyl acetate, butyl acetate, room temperature, read-out: Solubility) was 10000 µg/mL (≈ 26.8 mM), the solubility at 15 min (butyl acetate, solvent butyl acetate, room temperature, read-out: Solubility at RT) was 10000 µg/mL (≈ 26.8 mM) and the solubility (butyl acetate, butyl acetate, high temperature, read-out: Solubility) was 20000 to 100000 µg/mL (≈ 53.5 to 268 mM). The solubility at 15 min (butyl methyl ether, solvent butyl methyl ether, room temperature, read-out: Solubility at RT) was 10000 µg/mL (≈ 26.8 mM), the solubility (butyl methyl ether, solvent butyl methyl ether, 10 mg/mL, high temperature, read-out: Solubility HT (10 mg/mL): Sol. HT) was less than 10000 µg/mL and the solubility at 15 min (dimethylformamide (stored as limethylformamide), solvent limethylformamide, room temperature, read-out: Solubility at RT) was 200000 to 250000 µg/mL (≈ 535 to 669 mM). The solubility at 15 min (ethanol, ethanol, room temperature, read-out: Solubility) was 10000 µg/mL (≈ 26.8 mM), the solubility at 15 min (ethanol, solvent ethanol, room temperature, read-out: Solubility at RT) was 10000 µg/mL (≈ 26.8 mM) and the solubility (ethanol, ethanol, high temperature, read-out: Solubility) was 20000 to 100000 µg/mL (≈ 53.5 to 268 mM). It also gave a solubility at 15 min (ethyl acetate, ethyl acetate, room temperature, read-out: Solubility) of 10000 µg/mL (≈ 26.8 mM), a solubility at 15 min (ethyl acetate, solvent ethyl acetate, room temperature, read-out: Solubility at RT) of 10000 µg/mL (≈ 26.8 mM) and a solubility (ethyl acetate, ethyl acetate, high temperature, read-out: Solubility) of 20000 to 100000 µg/mL (≈ 53.5 to 268 mM). For the same compound, the solubility at 15 min (heptane, heptane, room temperature, read-out: Solubility) was less than 10000 µg/mL, the solubility at 15 min (heptane, solvent heptane, room temperature, read-out: Solubility at RT) was less than 10000 µg/mL and the solubility (heptane, heptane, high temperature, read-out: Solubility) was less than 10000 µg/mL. For the same compound, the solubility (heptane, solvent heptane, 10 mg/mL, high temperature, read-out: Solubility HT (10 mg/mL): Sol. HT) was less than 10000 µg/mL, the solubility at 15 min (methanol, methanol, read-out: Solubility) was 17000 to 20000 µg/mL (≈ 45.5 to 53.5 mM) and the solubility at 15 min (methanol, solvent methanol, room temperature, read-out: Solubility at RT) was 17000 to 20000 µg/mL (≈ 45.5 to 53.5 mM). The solubility at 15 min (methyl isobutyl ketone (4-methyl-2-pentanone), solvent methyl isobutyl ketone (4-methyl-2-pentanone), room temperature, read-out: Solubility at RT) was 10000 µg/mL (≈ 26.8 mM), the “Solubility HT (10 mg/mL): Clear point” value (solvent 2-propanol, 10 mg/mL) was 44 °C and the “Solubility HT (10 mg/mL): Sol. HT” value (solvent 2-propanol, 10 mg/mL, high temperature) was “YES”. The “Solubility HT (20 mg/mL): Clear point” value (solvent 2-propanol, 20 mg/mL) was 50.6 °C, the “Solubility HT (20 mg/mL): Sol. HT” value (solvent 2-propanol, 20 mg/mL, high temperature) was “YES” and the “Solubility HT (20 mg/mL): Re-PPT” value (solvent 2-propanol, 20 mg/mL, on cooling) was “YES”. The “Solubility HT (100 mg/mL): Clear point” value (solvent 2-propanol, 100 mg/mL) was 74.4 °C, the “Solubility HT (100 mg/mL): Cloudy point” value (solvent 2-propanol, 100 mg/mL) was 43.9 °C and the “Solubility HT (100 mg/mL): Sol. HT” value (solvent 2-propanol, 100 mg/mL, high temperature) was “YES”. The “Solubility HT (100 mg/mL): Re-PPT” value (solvent 2-propanol, 100 mg/mL, on cooling) was “YES”, the “Solubility HT (10 mg/mL): Clear point” value (solvent acetone, 10 mg/mL) was 30 °C and the “Solubility HT (10 mg/mL): Sol. HT” value (solvent acetone, 10 mg/mL, high temperature) was “YES”. For the same compound, the “Solubility HT (20 mg/mL): Clear point” value (solvent acetone, 20 mg/mL) was 38 °C, the “Solubility HT (20 mg/mL): Re-PPT after 18 hours at −20° C.” value (solvent acetone, 20 mg/mL) was “YES” and the “Solubility HT (20 mg/mL): Sol. HT” value (solvent acetone, 20 mg/mL, high temperature) was “YES”. For the same compound, the “Solubility HT (10 mg/mL): Clear point” value (solvent acetonitrile, 10 mg/mL) was 56 °C, the “Solubility HT (10 mg/mL): Sol. HT” value (solvent acetonitrile, 10 mg/mL, high temperature) was “YES” and the “Solubility HT (10 mg/mL): Re-PPT” value (solvent acetonitrile, 10 mg/mL, on cooling) was “YES”. The “Solubility HT (20 mg/mL): Clear point” value (solvent acetonitrile, 20 mg/mL) was 75 °C, the “Solubility HT (20 mg/mL): Sol. HT” value (solvent acetonitrile, 20 mg/mL, high temperature) was “YES” and the “Solubility HT (20 mg/mL): Re-PPT” value (solvent acetonitrile, 20 mg/mL, on cooling) was “YES”.
